Data reported in PubChem BioAssay (NCI).
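Grown in 96-well plates, cells were treated for 48 hours with each compound at five concentrations. Insufficient inhibition: endpoint recorded as highest concentration tested. GI50 is the concentration that inhibits growth by half. TGI denotes the concentration required for complete inhibition of growth.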

How the values were obtained:
Assay in all cases: NCI-60 cell line screen, 48 h
OVCAR-5 ovarian = test system: OVCAR-5 ovarian
HT29 colon = test system: HT29 colon
HOP-62 NSCLC = test system: HOP-62 NSCLC
OVCAR-8 ovarian = test system: OVCAR-8 ovarian
HOP-92 NSCLC = test system: HOP-92 NSCLC
SK-MEL-2 melanoma = test system: SK-MEL-2 melanoma
HL-60(TB) leukemia = test system: HL-60(TB) leukemia
HS 578T breast = test system: HS 578T breast
PC-3 prostate = test system: PC-3 prostate
A549 NSCLC = test system: A549 NSCLC
NCI-H23 lung = test system: NCI-H23 lung
DU-145 prostate = test system: DU-145 prostate
MDA-MB-435 = test system: MDA-MB-435
MCF7 breast = test system: MCF7 breast
OVCAR-3 ovarian = test system: OVCAR-3 ovarian
NCI/ADR-RES ovarian = test system: NCI/ADR-RES ovarian
M14 melanoma = test system: M14 melanoma
RPMI-8226 leukemia = test system: RPMI-8226 leukemia
TK-10 renal = test system: TK-10 renal
NCI-H460 lung = test system: NCI-H460 lung
SN12C renal = test system: SN12C renal
SR leukemia = test system: SR leukemia
UO-31 renal = test system: UO-31 renal
SK-MEL-5 melanoma = test system: SK-MEL-5 melanoma
CCRF-CEM leukemia = test system: CCRF-CEM leukemia
A498 renal = test system: A498 renal
MALME-3M melanoma = test system: MALME-3M melanoma
ACHN renal = test system: ACHN renal
LOX IMVI melanoma = test system: LOX IMVI melanoma
SK-MEL-28 melanoma = test system: SK-MEL-28 melanoma
MDA-N = test system: MDA-N
UACC-257 melanoma = test system: UACC-257 melanoma
SW-620 colon = test system: SW-620 colon
SNB-19 CNS = test system: SNB-19 CNS
U251 CNS = test system: U251 CNS
HCT-116 colon = test system: HCT-116 colon
786-0 renal = test system: 786-0 renal
RXF 393 renal = test system: RXF 393 renal
SF-268 CNS = test system: SF-268 CNS
EKVX NSCLC = test system: EKVX NSCLC
KM12 colon = test system: KM12 colon
K-562 leukemia = test system: K-562 leukemia
NCI-H226 lung = test system: NCI-H226 lung
MOLT-4 leukemia = test system: MOLT-4 leukemia
COLO 205 colon = test system: COLO 205 colon
SF-295 CNS = test system: SF-295 CNS
OVCAR-4 ovarian = test system: OVCAR-4 ovarian
HCT-15 colon = test system: HCT-15 colon
SK-OV-3 ovarian = test system: SK-OV-3 ovarian
HCC-2998 colon = test system: HCC-2998 colon
UACC-62 melanoma = test system: UACC-62 melanoma
MDA-MB-231 breast = test system: MDA-MB-231 breast
SF-539 CNS = test system: SF-539 CNS
NCI-H522 lung = test system: NCI-H522 lung
CAKI-1 renal = test system: CAKI-1 renal
SNB-75 CNS = test system: SNB-75 CNS
IGROV1 ovarian = test system: IGROV1 ovarian
T-47D breast = test system: T-47D breast
BT-549 breast = test system: BT-549 breast

With `Cc1nc2c([nH]c1C)c(O)cc1c3c(nc12)C(=O)CCC3` the TGI (OVCAR-5 ovarian) was over 100 µM, the TGI (HT29 colon) was 11.7 µM and the TGI (HOP-62 NSCLC) was over 100 µM. The TGI (OVCAR-8 ovarian) was 8.25 µM, the TGI (HOP-92 NSCLC) was over 100 µM and the TGI (SK-MEL-2 melanoma) was 8.92 µM. The TGI (HL-60(TB) leukemia) was over 100 µM, the TGI (HS 578T breast) was 83 µM and the TGI (PC-3 prostate) was over 100 µM. It also gave a TGI (A549 NSCLC) of 14.1 µM, a TGI (NCI-H23 lung) of over 100 µM and a TGI (DU-145 prostate) of over 100 µM. It also gave a TGI (MDA-MB-435) of 2.05 µM, a TGI (MCF7 breast) of 4.35 µM and a TGI (OVCAR-3 ovarian) of 7.31 µM. It also gave a TGI (NCI/ADR-RES ovarian) of over 100 µM, a TGI (M14 melanoma) of over 100 µM and a TGI (RPMI-8226 leukemia) of 7.05 µM. The TGI (TK-10 renal) was 26.3 µM, the TGI (NCI-H460 lung) was over 100 µM and the TGI (SN12C renal) was over 100 µM. The TGI (SR leukemia) was 8.77 µM, the TGI (UO-31 renal) was 84.2 µM and the TGI (SK-MEL-5 melanoma) was over 100 µM. It also gave a TGI (CCRF-CEM leukemia) of over 100 µM, a TGI (A498 renal) of over 100 µM and a TGI (MALME-3M melanoma) of over 100 µM. It also gave a TGI (ACHN renal) of over 100 µM, a TGI (LOX IMVI melanoma) of over 100 µM and a TGI (SK-MEL-28 melanoma) of over 100 µM. The TGI (MDA-N) was 3.1 µM, the TGI (UACC-257 melanoma) was over 100 µM and the TGI (SW-620 colon) was over 100 µM. The TGI (SNB-19 CNS) was over 100 µM, the TGI (U251 CNS) was 20.9 µM and the TGI (HCT-116 colon) was over 100 µM. It also gave a TGI (786-0 renal) of over 100 µM, a TGI (RXF 393 renal) of 3.68 µM and a TGI (SF-268 CNS) of 96.2 µM. For the same compound, the TGI (EKVX NSCLC) was over 100 µM, the TGI (KM12 colon) was over 100 µM and the TGI (K-562 leukemia) was over 100 µM. For the same compound, the TGI (NCI-H226 lung) was over 100 µM, the TGI (MOLT-4 leukemia) was over 100 µM and the TGI (COLO 205 colon) was 5.99 µM. It also gave a TGI (SF-295 CNS) of 90.8 µM, a TGI (OVCAR-4 ovarian) of 45.4 µM and a TGI (HCT-15 colon) of over 100 µM. It also gave a TGI (SK-OV-3 ovarian) of 38.1 µM, a TGI (HCC-2998 colon) of 7.88 µM and a TGI (UACC-62 melanoma) of 52.6 µM. It also gave a TGI (MDA-MB-231 breast) of over 100 µM and a TGI (SF-539 CNS) of 13.6 µM.

`Cc1ccc(-c2cc3c(NC(=O)C4CC4)ncnc3o2)cc1` showed a GI50 (OVCAR-5 ovarian) of over 25 µM, a TGI (OVCAR-5 ovarian) of over 25 µM and a GI50 (HT29 colon) of over 25 µM. It also gave a TGI (HT29 colon) of over 25 µM, a GI50 (HOP-62 NSCLC) of over 25 µM and a TGI (HOP-62 NSCLC) of over 25 µM. For the same compound, the GI50 (OVCAR-8 ovarian) was over 25 µM, the TGI (OVCAR-8 ovarian) was over 25 µM and the GI50 (HOP-92 NSCLC) was over 25 µM. It also gave a TGI (HOP-92 NSCLC) of over 25 µM, a GI50 (SK-MEL-2 melanoma) of over 25 µM and a TGI (SK-MEL-2 melanoma) of over 25 µM. For the same compound, the GI50 (HL-60(TB) leukemia) was over 25 µM, the TGI (HL-60(TB) leukemia) was over 25 µM and the GI50 (NCI-H522 lung) was over 25 µM. For the same compound, the TGI (NCI-H522 lung) was over 25 µM, the GI50 (HS 578T breast) was over 25 µM and the TGI (HS 578T breast) was over 25 µM. It also gave a GI50 (PC-3 prostate) of over 25 µM, a TGI (PC-3 prostate) of over 25 µM and a GI50 (A549 NSCLC) of over 25 µM. For the same compound, the TGI (A549 NSCLC) was over 25 µM, the GI50 (NCI-H23 lung) was over 25 µM and the TGI (NCI-H23 lung) was over 25 µM. It also gave a GI50 (DU-145 prostate) of over 25 µM, a TGI (DU-145 prostate) of over 25 µM and a GI50 (MDA-MB-435) of over 25 µM. The TGI (MDA-MB-435) was over 25 µM, the GI50 (MCF7 breast) was over 25 µM and the TGI (MCF7 breast) was over 25 µM. The GI50 (OVCAR-3 ovarian) was over 25 µM, the TGI (OVCAR-3 ovarian) was over 25 µM and the GI50 (NCI/ADR-RES ovarian) was over 25 µM. The TGI (NCI/ADR-RES ovarian) was over 25 µM, the GI50 (M14 melanoma) was over 25 µM and the TGI (M14 melanoma) was over 25 µM. For the same compound, the GI50 (RPMI-8226 leukemia) was over 25 µM, the TGI (RPMI-8226 leukemia) was over 25 µM and the GI50 (TK-10 renal) was over 25 µM. For the same compound, the TGI (TK-10 renal) was over 25 µM, the GI50 (CAKI-1 renal) was over 25 µM and the TGI (CAKI-1 renal) was over 25 µM. It also gave a GI50 (NCI-H460 lung) of over 25 µM, a TGI (NCI-H460 lung) of over 25 µM and a GI50 (SN12C renal) of over 25 µM. The TGI (SN12C renal) was over 25 µM, the GI50 (SR leukemia) was over 25 µM and the TGI (SR leukemia) was over 25 µM. For the same compound, the GI50 (UO-31 renal) was over 25 µM, the TGI (UO-31 renal) was over 25 µM and the GI50 (SK-MEL-5 melanoma) was over 25 µM. It also gave a TGI (SK-MEL-5 melanoma) of over 25 µM, a GI50 (SNB-75 CNS) of 24.2 µM and a TGI (SNB-75 CNS) of over 25 µM. The GI50 (CCRF-CEM leukemia) was over 25 µM, the TGI (CCRF-CEM leukemia) was over 25 µM and the GI50 (A498 renal) was over 25 µM. It also gave a TGI (A498 renal) of over 25 µM, a GI50 (MALME-3M melanoma) of over 25 µM and a TGI (MALME-3M melanoma) of over 25 µM. For the same compound, the GI50 (ACHN renal) was over 25 µM, the TGI (ACHN renal) was over 25 µM and the GI50 (LOX IMVI melanoma) was over 25 µM. For the same compound, the TGI (LOX IMVI melanoma) was over 25 µM, the GI50 (SK-MEL-28 melanoma) was over 25 µM and the TGI (SK-MEL-28 melanoma) was over 25 µM. It also gave a GI50 (UACC-257 melanoma) of over 25 µM, a TGI (UACC-257 melanoma) of over 25 µM and a GI50 (SW-620 colon) of over 25 µM. The TGI (SW-620 colon) was over 25 µM, the GI50 (SNB-19 CNS) was over 25 µM and the TGI (SNB-19 CNS) was over 25 µM. For the same compound, the GI50 (U251 CNS) was over 25 µM, the TGI (U251 CNS) was over 25 µM and the GI50 (HCT-116 colon) was over 25 µM. It also gave a TGI (HCT-116 colon) of over 25 µM, a GI50 (786-0 renal) of over 25 µM and a TGI (786-0 renal) of over 25 µM. It also gave a GI50 (RXF 393 renal) of over 25 µM, a TGI (RXF 393 renal) of over 25 µM and a GI50 (IGROV1 ovarian) of over 25 µM. For the same compound, the TGI (IGROV1 ovarian) was over 25 µM, the GI50 (T-47D breast) was over 25 µM and the TGI (T-47D breast) was over 25 µM. For the same compound, the GI50 (SF-268 CNS) was over 25 µM, the TGI (SF-268 CNS) was over 25 µM and the GI50 (EKVX NSCLC) was over 21.3 µM. The TGI (EKVX NSCLC) was over 25 µM, the GI50 (KM12 colon) was over 25 µM and the TGI (KM12 colon) was over 25 µM. For the same compound, the GI50 (K-562 leukemia) was over 25 µM, the TGI (K-562 leukemia) was over 25 µM and the GI50 (NCI-H226 lung) was over 25 µM. For the same compound, the TGI (NCI-H226 lung) was over 25 µM, the GI50 (MOLT-4 leukemia) was over 25 µM and the TGI (MOLT-4 leukemia) was over 25 µM. The GI50 (BT-549 breast) was over 25 µM, the TGI (BT-549 breast) was over 25 µM and the GI50 (COLO 205 colon) was over 25 µM. The TGI (COLO 205 colon) was over 25 µM, the GI50 (SF-295 CNS) was over 25 µM and the TGI (SF-295 CNS) was over 25 µM. It also gave a GI50 (OVCAR-4 ovarian) of over 25 µM, a TGI (OVCAR-4 ovarian) of over 25 µM and a GI50 (HCT-15 colon) of over 25 µM. It also gave a TGI (HCT-15 colon) of over 25 µM, a GI50 (SK-OV-3 ovarian) of over 25 µM and a TGI (SK-OV-3 ovarian) of over 25 µM. It also gave a GI50 (HCC-2998 colon) of over 25 µM, a TGI (HCC-2998 colon) of over 25 µM and a GI50 (UACC-62 melanoma) of over 25 µM. It also gave a TGI (UACC-62 melanoma) of over 25 µM, a GI50 (MDA-MB-231 breast) of over 25 µM and a TGI (MDA-MB-231 breast) of over 25 µM. The GI50 (SF-539 CNS) was over 25 µM and the TGI (SF-539 CNS) was over 25 µM.
